Reference: US20250109140A1, “5-[5-(PIPERIDIN-4-YL)THIENO[3,2-C]PYRAZOL-2-YL]INDAZOLE DERIVATIVES AND RELATED COMPOUNDS AS MODULATORS FOR SPLICING NUCLEIC ACIDS AND FOR THE TREATMENT OF PROLIFERATIVE DISEASES” (REMIX THERAPUTICS INC., priority 2022, published 2025)
Read-outs that look alike come from different tables or passages of the source.

How the values were obtained:
Format in all cases: cell-based
HTT mRNA = experiment: Splicing RT-qPCR assay, HTT canonical (CJ) and alternative (AJ) junction mRNA; settings: Homo sapiens; for EC50: AC50 = 50% response in AJ mRNA increase
Method: (§1) Compounds described herein were used to modulate RNA transcript abundance in cells. The expression of a target mRNA was measured by detecting the formation of an exon-exon junction in the canonical transcript (CJ). A compound mediated exon-inclusion event was detected by observing an increase in formation of a new junction with an alternative exon (AJ). Real-time qPCR assays were used to detect these splicing switches and interrogate the potency of various compounds towards different target genes. A high-throughput real time quantitative PCR (RT-qPCR) assay was developed to measure these two isoforms of the mRNA (CJ and AJ) for exemplary genes, such as HTT, SMN2, and MYB, together with a control housekeeping gene, GAPDH or GUSB or PPIA, used for normalization. Briefly, the A673 or K562 cell line was treated with various compounds described herein (e.g., compounds of Formula (I)). After treatment, the levels of the HTT, MYB, or SMN2 mRNA targets were determined from each sample of cell lysate by cDNA synthesis followed by qPCR.
(§2) The A673 cell line was cultured in DMEM with 10% FBS. Cells were diluted with full growth media and plated in a 96-well plate (15,000 cells in 100 ul media per well). The plate was incubated at 37° C. with 5% CO2 for 24 hours to allow cells to adhere. An 11-point 3-fold serial dilution of the compounds was made in DMSO then diluted in media in an intermediate plate. Compounds were transferred from the intermediate plate to the cell plate with the top dose at a final concentration of 10 uM in the well. Final DMSO concentration was kept at or below 0.25%. The cell plate was returned to the incubator at 37° C. with 5% CO2 for an additional 24 hours.
(§3) The K562 cell line was cultured in IMDM with 10% FBS. For K562, cells were diluted with full growth media and plated in either a 96-well plate (50,000 cells in 50 uL media per well) or a 384-well plate (8,000-40,000 cells in 45 uL media per well). An 11-point 3-fold serial dilution of the compounds were made in DMSO then diluted in media in an intermediate plate. Compound was transferred from the intermediate plate to the cell plate with the top dose at a final concentration of 10 uM in the well. Final DMSO concentration was kept at or below 0.25%. Final volume was 100 uL for 96-well plate and 50 uL for 384-well plate. The cell plate was then placed in an incubator at 37° C. with 5% CO2 for 24 hours.
(§4) The cells were then gently washed with 50 uL-100 uL cold PBS before proceeding to addition of lysis buffer. 30 uL-50 uL of room temperature lysis buffer with DNAse I (and optionally RNAsin) was added to each well. Cells were shaken/mixed thoroughly at room temperature for 5-10 minutes for lysis to take place and then 3 uL-5 uL of room temperature stop solution was added and wells were shaken/mixed again. After 2-5 minutes, the cell lysate plate was transferred to ice for RT-qPCR reaction setup. The lysates could also be frozen at-80° C. for later use.
(§5) In some cases, a direct lysis buffer was used. An appropriate volume of 3× lysis buffer (10 mM Tris, 150 mM NaCl, 1.5%-2.5% Igepal and 0.1-1 U/uL RNAsin, pH 7.4) was directly added to either K562 or A673 cells in media and mixed by pipetting 3 times. The plates were then incubated at room temperature with shaking/rocking for 20-50 minutes to allow for lysis to take place. After this time, the cell lysate plate was transferred to ice to set up for the RT-qPCR reactions. The lysates could also be frozen at −80° C. for later use.
(§6) To set up 10 uL RT-qPCR reactions, cell lysates were transferred to 384-well qPCR plates containing the master mix according to the table below. The plates were sealed, gently vortexed, and spun down before the run. The volumes were adjusted accordingly in some instances where the reaction was carried in 20 μL. The table below summarizes the components of the RT-qPCR reactions:
(§7) The RT-qPCR reaction was performed using a QuantStudio (ThermoFisher) under the following fast cycling conditions. […]

MYB mRNA = experiment: Splicing RT-qPCR assay, MYB canonical (CJ) and alternative (AJ) junction mRNA; settings: Homo sapiens; for EC50: AC50 = 50% response in AJ mRNA increase
Method: as §1, §2, §3, §4, §5, §6, §7

SMN2 mRNA = experiment: Splicing RT-qPCR gene panel, SMN2 canonical junction (CJ) mRNA; settings: Homo sapiens; Table 8; larger gene panel, decrease in CJ mRNA levels
Method: as §1, §2, §3, §4, §5, §6, §7

Target C mRNA = experiment: Splicing RT-qPCR gene panel, Target C canonical junction (CJ) mRNA; settings: Homo sapiens; Table 8; larger gene panel, decrease in CJ mRNA levels
Method: as §1, §2, §3, §4, §5, §6, §7

[1] = Table 7, RT-qPCR, A673 or K562 cells, 24 hours treatment
[2] = Table 7, IC50 = 50% response in CJ mRNA decrease, RT-qPCR, A673 or K562 cells, 24 hours treatment, read-out: HTT CJ
[3] = Table 8, larger gene panel, decrease in CJ mRNA levels, read-out: HTT CJ IC50
[4] = Table 7, IC50 = 50% response in CJ mRNA decrease, RT-qPCR, A673 or K562 cells, 24 hours treatment, read-out: MYB CJ
[5] = Table 8, larger gene panel, decrease in CJ mRNA levels, read-out: MYB CJ IC50

Row | SMILES | EC50 (HTT mRNA; [1]) [nM] | IC50 (HTT mRNA; [2]) [nM] | IC50 (HTT mRNA; [3]) [nM] | EC50 (MYB mRNA; [1]) [nM] | IC50 (MYB mRNA; [4]) [nM] | IC50 (MYB mRNA; [5]) [nM] | IC50 (SMN2 mRNA) [nM] | IC50 (Target C mRNA) [nM]
1 | Cc1nc2c(F)cc(-c3nc4sc(C5CCNCC5)cc4s3)cc2s1 [Compound 126] | 100 to 1000 | 100 to 1000 | 100 to 1000 | 1000 to 10000 | 1000 to 10000 | 1000 to 10000 | 100 to 1000 | 1000 to 10000
2 | CC1CN(c2cc3sc(-c4cc(F)c5nn(C)cc5c4)nc3s2)CCN1 (centres unmarked) [Compound 135, 7-fluoro-2-methyl-5-[5-(3-methylpiperazin-1-yl)thieno[2,3-d][1,3]thiazol-2-yl]indazole] | 100 to 1000 | 100 to 1000 | 100 to 1000 | 100 to 1000 | 100 to 1000 | 100 to 1000 | < 100 | 100 to 1000
3 | Cn1cc2cc(-c3nc4sc(C5(O)CCNCC5)cc4s3)cc(F)c2n1 [Compound 236, 4-[2-(7-fluoro-2-methylindazol-5-yl)thieno[2,3-d][1,3]thiazol-5-yl]piperidin-4-ol] | 1000 to 10000 | 100 to 1000 | 1000 to 10000 | 1000 to 10000 | 100 to 1000 | 1000 to 10000 | 100 to 1000 | 1000 to 10000
4 | COc1c(-c2nc3sc(C4CCNCC4)cc3s2)cc2cn(C)nc2c1F [Compound 242, 7-fluoro-6-methoxy-2-methyl-5-[5-(piperidin-4-yl)thieno[2,3-d][1,3]thiazol-2-yl]indazole] | < 100 | < 100 | < 100 | < 100 | < 100 | < 100 | < 100 | < 100
5 | Cc1nc2c(F)cc(-c3nc4sc(C5CCNCC5)cc4s3)cc2o1 [Compound 132, 4-fluoro-2-methyl-6-[5-(piperidin-4-yl)thieno[2,3-d][1,3]thiazol-2-yl]-1,3-benzoxazole] | < 100 | 100 to 1000 | < 100 | 100 to 1000 | 100 to 1000 | 100 to 1000 | 100 to 1000 | 100 to 1000
6 | Cn1cc2cc(N3Cc4sc(C5CCNCC5)cc4C3=O)cc(F)c2n1 [Compound 1119, 5-(7-fluoro-2-methylindazol-5-yl)-2-(piperidin-4-yl)-6H-thieno[2,3-c]pyrrol-4-one] | < 100 | < 100 | < 100 | 100 to 1000 | 100 to 1000 | 100 to 1000 | < 100 | 100 to 1000
7 | C[C@@H]1C[C@H](c2cc3sc(-c4cc(F)c5nn(C)cc5c4)nc3s2)CCN1 (single isomer, unassigned) [Compound 192, 7-fluoro-2-methyl-5-[5-(2-methylpiperidin-4-yl)thieno[2,3-d][1,3]thiazol-2-yl]indazole] | < 100 | < 100 | < 100 | < 100 | < 100 | < 100 | < 100 | < 100
8 | C[C@@H]1C[C@@H](c2cc3sc(-c4cc(F)c5nn(C)cc5c4)nc3s2)CCN1 (stereo in doubt) [Compound 263, 7-fluoro-2-methyl-5-{5-[(2R,4S)-2-methylpiperidin-4-yl]thieno[2,3-d][1,3]thiazol-2-yl}indazole] | < 100 | < 100 | < 100 | 100 to 1000 | 100 to 1000 | 100 to 1000 | < 100 | 100 to 1000
9 | Cc1cn2nc(N3Cc4sc(C5CCNCC5)cc4C3=O)cc(C)c2n1 [Compound 1127] | < 100 | < 100 | < 100 | 100 to 1000 | 100 to 1000 | 100 to 1000 | < 100 | 100 to 1000
10 | CN(C)C1CCN(c2cc3sc(-c4cc(F)c5nn(C)cc5c4)nc3s2)CC1 [Compound 154, 1-[2-(7-fluoro-2-methylindazol-5-yl)thieno[2,3-d][1,3]thiazol-5-yl]-N,N-dimethylpiperidin-4-amine] | 100 to 1000 | 100 to 1000 | 100 to 1000 | 100 to 1000 | 100 to 1000 | 100 to 1000 | < 100 | 100 to 1000
11 | Cn1cc2cc(N3Cc4sc(C5CCNCC5)cc4C3=O)ccc2n1 [Compound 1120] | 1000 to 10000 | 1000 to 10000 | 1000 to 10000 | 1000 to 10000 | 1000 to 10000 | 1000 to 10000 | 100 to 1000 | 1000 to 10000
12 | Cc1cc(N2Cc3sc(C4CCNCC4)cc3C2=O)cc2cn(C)nc12 [Compound 1122] | 100 to 1000 | 100 to 1000 | 100 to 1000 | 100 to 1000 | 100 to 1000 | 100 to 1000 | 100 to 1000 | 100 to 1000
13 | Cn1cc2cc(-c3nc4sc(N5CCNC(C)(C)C5)cc4s3)cc(F)c2n1 [Compound 142, 5-[5-(3,3-dimethylpiperazin-1-yl)thieno[2,3-d][1,3]thiazol-2-yl]-7-fluoro-2-methylindazole] | 100 to 1000 | 100 to 1000 | 100 to 1000 | 100 to 1000 | 100 to 1000 | 100 to 1000 | < 100 | 1000 to 10000
